Assay results: patent publication US10912769B2, “1-[(pyridin-3-yl-sulfonyl)-1H-pyrrol-3-yl] methanamine derivative and pharmaceutical composition and use thereof” (Jiangsu Jibeier Pharmaceutical Co. Ltd., priority 2016, dated 2021)
Structures can show the parent of a compound that is named as a salt. Where two headings read alike, the source gives them in different places. Marks after values point to notes of the source that are not given here.

Columns and labels:
[1] = test system: basal gastric acid secretion in rats; experiment: Inhibitory test of basal gastric acid secretion in pylorus-ligated rats after intragastric administration; type: in vivo, SD rats; conditions: for Inhibitory rate (basal gastric acid secretion) / Amount of gastric juice / Total acid amount of the gastric juice: n = 10; for Amount of gastric juice: pylorus ligation 1 h after administration, gastric juice collected after 4 h; for Amount of gastric juice / Total acid amount of the gastric juice: X ± S; for Total acid amount of the gastric juice: titration with 0.01 mol/L NaOH; for Effect on the total acid amount of the gastric juice as compared with the model control group: I-1a 2 mg/kg and 1 mg/kg, vonoprazan fumarate 2 mg/kg, P<0.05 or P<0.01
Text: An equal amount of deuterated vonoprazan fumarate derivatives I-1a, I-2a, I-3a and I-4a prepared and obtained in the Examples and vonoprazan fumarate (vonoprazan was 1-[5-(2-fluorophenyl)-1-(pyridin-3-yl-sulfonyl)-1H-pyrrol-3-yl]-N-methylmethanamine) were taken respectively and subjected to the inhibitory activity test on gastric acid secretion in rats.
SD rats which were SPF grade and weighed 180 to 200 g were selected and used in this experiment. The rats were grouped randomly with 10 rats in each group (half male and half female). Animals were fasted but free to access water for 16 hours. 1 hour after administration, the animals were anesthetized with isoflurane and fixed in a supine position. The abdomen was shaved and disinfected routinely. A 1.5 cm incision was made along the midline and below the xiphoid, the stomach was taken gently, the gastric pylorus was ligated with surgical suture at the junction of the stomach pylorus and the duodenum, and the incision was sutured. The animals were fasted and water-deprived after the surgery. After 4 hours, the animals were anesthetized by intra-abdominally injecting 1% sodium pentobarbital. The incision was opened, and the gastric cardia was ligated. The stomach was taken out and cut open along the greater curvature of stomach. The gastric juice was collected and centrifuged at 3000 rpm for 10 minutes. The supernatant was aspirated and the volume of the gastric juice was measured. 0.5 mL of the gastric juice was taken and placed in a small conical flask, a drop of phenolphthalein indicator was added, and the mixture was titrated with 0.01 mol/L sodium hydroxide until the red color appeared (the color was no longer deepened) as the endpoint. The total amount of gastric acid was calculated according to the following formula. The average secretion amount of the gastric juice and the total acid amount of the gastric juice of each administered group and the model control group were subjected to statistical tests.
The inhibitory test of basal gastric acid secretion in rats was carried out after intragastric administration of the vonoprazan fumarate derivatives and vonoprazan fumarate, and the results were as shown in Table 1 and FIG. 1. […] The inhibitory effects of the vonoprazan fumarate derivative (Compound I-1a) with a dosage of 2 mg/kg on the secretion amount of gastric juice and the total acid amount of the gastric juice in rats were stronger than that of the same dosage (2 mg/kg) of vonoprazan fumarate, and there was a significant difference between the two (P<0.05). As compared with vonoprazan fumarate, the vonoprazan fumarate derivatives had stronger inhibitory effect on the gastric acid secretion in rats at the same dosage.

[2] = Pharmacokinetic experiment in rats after single intragastric administration (plasma LC-MS/MS); type: in vivo; conditions: both sexes, SD, rat, po, 2 mg/kg intragastric; for AUC(0-inf) / Cmax / Tmax / half-life: n = 6; for bioavailability: n = 6, read-out: F (absolute bioavailability); for AUC(0-t): 2 mg/kg
Description: An equal amount of Compound I-1a (1-[5-(2-fluorophenyl)-1-(pyridin-3-yl-sulfonyl)-1H-pyrrol-3-yl]-N-methyldideuteromethanamine fumarate) prepared and obtained in the Example and vonoprazan fumarate were taken respectively and subjected to a pharmacokinetic experiment.
Drug formulating manner: 16 mg of the drug (the vonoprazan fumarate derivatives or vonoprazan fumarate) was weighed and taken, and dissolved in 2 mL of N-methylpyrrolidone. 38 mL of 5% glucose injection was further added thereto to prepare a dosing solution with a concentration of 0.4 mg/mL and the dosing solution was administered by intragastric administration.
Intragastric administration: 6 SD rats (half male and half female) were taken and orally administered as a single dose (2 mg/kg). Blood samples was collected after administration, and the time points of blood collection were 0.083 hours, 0.25 hours, 0.5 hours, 1 hour, 2 hours, 3 hours, 4 hours, 6 hours, 8 hours, 12 hours, 24 hours, 36 hours, and 48 hours after the administration.
Sample collection: 200 μL of whole blood was taken at each time point of blood collection, heparin was added for anticoagulation, and the mixture was centrifuged at 12000 rpm for 5 min at 4° C. 50 μL of the plasma was taken and placed in a polypropylene tube, and the rest was used for backup and stored at −20° C. to be tested.
Plasma treatment method: To 50 μL of rat plasma anticoagulated by heparin, 50 μL of methanol and […], of a solution of the internal standard etofesalamide in methanol (10 ng/mL) were added. The mixture was vortexed for 1 min and centrifuged at 12000 rpm for 10 min at 4° C. 100 μL of the supernatant was taken and placed in a vial insert, and 1 μL of the supernatant was injected for LC-MS/MS analysis.
The pharmacokinetic parameters were calculated by non-compartment model statistical moment method using WinNonlin 6.3 software.

[3] = mean, n = 6, read-out: AUC0-6 h

Compound	Inhibitory rate (basal gastric acid secretion) ([1]; 1 mg/kg intragastric) [%]	Amount of gastric juice ([1]; 1 mg/kg intragastric) [mL]	Total acid amount of the gastric juice ([1]; 1 mg/kg intragastric) [µmol]	Inhibitory rate (basal gastric acid secretion) ([1]; 2 mg/kg intragastric) [%]	Amount of gastric juice ([1]; 2 mg/kg intragastric)	Total acid amount of the gastric juice ([1]; 2 mg/kg intragastric)	Effect on the total acid amount of the gastric juice as compared with the model control group [1]	AUC(0-inf) ([2]; mean) [ng·h/mL]	Cmax ([2]; mean) [ng/mL]	Tmax ([2]; mean) [min]	half-life ([2]; mean) [min]	bioavailability [2] [%]	AUC(0-t) [2, 3] [ng·h/mL]	AUC(0-t) ([2]; read-out: AUC0-t in the plasma) [ng·h/mL]	further results
CNCc1cc(-c2ccccc2F)n(S(=O)(=O)c2cccnc2)c1 [vonoprazan fumarate, reference compound]	43.1	3.1 ± 1.2	184.2 ± 83.4	73.8	3.0 ± 1.3 mL	84.9 ± 83.2 µmol	significant inhibitory effect	–	–	–	–	–	–	–	–
O=C(O)/C=C/C(=O)O.[2H]C([2H])([2H])NC([2H])([2H])c1cc(-c2ccccc2F)n(S(=O)(=O)c2cccnc2)c1 [Compound I-2a, 1-[5-(2-fluorophenyl)-1-(pyridin-3-yl-sulfonyl)-1H-pyrrol-3-yl]-N-trideuteromethyldideuteromethanamine fumarate]	–	–	–	95.5	–	–	–	–	–	–	–	–	–	–	–
O=C(O)/C=C/C(=O)O.[2H]c1nc([2H])c(S(=O)(=O)n2cc(C([2H])([2H])NC([2H])([2H])[2H])cc2-c2ccccc2F)c([2H])c1[2H] [Compound I-4a, 1-[5-(2-fluorophenyl)-1-(tetradeuteropyridin-3-yl-sulfonyl)-1H-pyrrol-3-yl]-N-trideuteromethyldideuteromethanamine fumarate]	–	–	–	97.4	–	–	–	–	–	–	–	–	–	–	–
CNCc1cc(-c2ccccc2F)n(S(=O)(=O)c2cccnc2)c1 [TAK-438, 1-[5-(2-fluorophenyl)-1-(pyridin-3-yl-sulfonyl)-1H-pyrrol-3-yl]-N-methylmethanamine, reference compound]	–	–	–	–	–	–	–	45	67.3	15	47.8	33.5	44.6	45	–
O=C(O)/C=C/C(=O)O.[2H]C([2H])(NC)c1cc(-c2ccccc2F)n(S(=O)(=O)c2cccnc2)c1 [Compound I-1a, 1-[5-(2-fluorophenyl)-1-(pyridin-3-yl-sulfonyl)-1H-pyrrol-3-yl]-N-methyldideuteromethanamine fumarate]	52.7	2.6 ± 0.8	153.3 ± 85.9	95.3	1.8 ± 0.9**^Δ mL	15.3 ± 12.9***^Δ μmol	significant inhibitory effect	–	–	–	–	–	–	–	Effect on the secretion amount of gastric juice as compared with the model control group ([1]; 2 mg/kg, P<0.01): significant inhibitory effect; Inhibitory effects on secretion amount and total acid amount of gastric juice compared with same dosage of vonoprazan fumarate ([1]; 2 mg/kg, P<0.05): stronger
[2H]C([2H])(NC)c1cc(-c2ccccc2F)n(S(=O)(=O)c2cccnc2)c1 [TAK-438d2, 1-[5-(2-fluorophenyl)-1-(pyridin-3-yl-sulfonyl)-1H-pyrrol-3-yl]-N-methyldideuteromethanamine]	–	–	–	–	–	–	–	56.4	74.9	15	57.7	42.9	56.2	56.4	–
